Measurements as given in US8642618B2, “Carbostyril derivatives including cilostazol for treating fatty liver” (Otsuka Pharmaceutical Co., Ltd., priority 2007, dated 2014).

System: Fisher 344 rats fed a choline-deficiented, L-amino acid-defined (CDAA) diet (animal model for fatty liver)
Assay: CDAA diet rat model for fatty liver: liver staining for lipid droplets and serum triglyceride
Type: in vivo
Method: Fisher 344 rats were fed only a general diet or a choline-deficiented, L-amino acid-defined (CDAA) diet to prepare a control group and a CDAA group as an animal model for fatty liver, respectively. Three medicament-treated groups were prepared by administering the following three medicaments to the CDAA groups every day. (Aspirin and ticlopidine are medicaments having the same platelet aggregation inhibitory action as cilostazol.)
In addition, the amount of triglyceride in the liver as well as the serum level of triglyceride in those rats were measured.

O=C1CCc2cc(OCCCCc3nnnn3C3CCCCC3)ccc2N1 [cilostazol, 6-[4-(1-cyclohexyl-1H-tetrazol-5-yl)butoxy]-3,4-dihydrocarbostyril]
lipid droplet of liver (Hematoxylin-eosin staining and Masson staining) (CDAA diet + 6 mg/kg every day for 6 weeks, compared with CDAA group without cilostazol and with aspirin (5 mg/kg) / ticlopidine (10 mg/kg) groups, FIG. 1-9): markedly less
serum level of triglyceride (CDAA diet + 6 mg/kg every day, 6 weeks after start of administration, compared with control group and other medicaments-treated groups, FIG. 10): significantly lower
